Measurements as given in patent US20190307821A1, “METHODS AND COMPOSITIONS FOR CANCER THERAPY” (priority 2016, published 2019).

What was measured:
[1] = system: parental and drug-resistant ID8 cells; type: cell-based, murine; conditions: 72-h cell viability assay, ID8-R versus parental cells
[2] = system: parental and drug-resistant CAOV2 cells; type: cell-based, human; conditions: 72-h cell viability assay, CAOV2-R versus parental
ID8-R cells = experiment: Growth in the presence of DOX (trypan blue exclusion test); type: cell-based, murine; conditions: DOX 3 μM, after a one-week period
Procedure: (§1) FIG. 9. Susceptibility of parental and resistant ID8 and CAOV2 tumor cells to PTX, CBDCA and DOX. (a) Characterization of side population (SP) in the parental (P) and drug-resistant (R) ID8 (left panel) and CAOV2 (right panel) tumor cells by Hoechst 33342 dye staining. One representative experiment of two independent experiments performed in duplicates is shown. Growth of the parental and drug-resistant tumor variants of ID8 (b) and CAOV2 (c) cells in the presence of PTX (59 nM) and CBDCA (2.6 μM) (left panel) or DOX (3 μM) (right panel) was determined by a trypan blue exclusion test for cell viability. Bars represent the mean±SD of two independent experiments using triplicate samples.

CAOV2-R cells = experiment: as above; type: cell-based, human; conditions: DOX 3 μM, after a one-week period
Procedure: as §1

[3] = system: OVV-EGFP in ID8-R tumor cells; type: cell-based, vaccinia virus
[4] = system: OVV-EGFP in CAOV2-R tumor cells; type: cell-based, vaccinia virus
ID8-R tumor cells = type: cell-based, murine; conditions: 24 h cultures, OVV MOI of 1 or DOX 1 μM alone

COc1cccc2c1C(=O)c1c(O)c3c(c(O)c1C2=O)C[C@@](O)(C(=O)CO)C[C@@H]3O[C@H]1C[C@H](N)[C@H](O)[C@H](C)O1 [DOX, doxorubicin]
IC50 values higher compared to the parental cells [1]: approximately 10 fold
differences in the IC50 values between the resistant and parental cells [2]: 3 fold
dead cells (ID8-R cells): over 90%
dead cells (CAOV2-R cells): over 90%
decrease in viral titers [3]: 10 fold
decrease in viral titers [4]: 3 fold
cells with apoptosis or necrosis (ID8-R tumor cells): ~20%
